Like-named read-outs stand apart in the source and are kept apart here.
Tests used:
AOS = test system: AOS; design: method as in PMID 12223729; conditions: cited from earlier work
AOC = test system: AOC; design: method as in PMID 12223729; conditions: cited from earlier work
LOX4 [1] = target: T1, LOX4 (Arabidopsis thaliana, UniProt Q9FNX8); assay: LOX4 activity, oxygen electrode (polarography); type: biochemical; design: made in house; host or cells: E. coli Nico21(DE3), pET15b; conditions: for Relative Activity (%) LOX4: 1 mM metal salt, LeA 30 µM in 20 mM HEPES pH 8.0, oxygen consumption vs control without metal
T1 sequence (Q9FNX8 71-926): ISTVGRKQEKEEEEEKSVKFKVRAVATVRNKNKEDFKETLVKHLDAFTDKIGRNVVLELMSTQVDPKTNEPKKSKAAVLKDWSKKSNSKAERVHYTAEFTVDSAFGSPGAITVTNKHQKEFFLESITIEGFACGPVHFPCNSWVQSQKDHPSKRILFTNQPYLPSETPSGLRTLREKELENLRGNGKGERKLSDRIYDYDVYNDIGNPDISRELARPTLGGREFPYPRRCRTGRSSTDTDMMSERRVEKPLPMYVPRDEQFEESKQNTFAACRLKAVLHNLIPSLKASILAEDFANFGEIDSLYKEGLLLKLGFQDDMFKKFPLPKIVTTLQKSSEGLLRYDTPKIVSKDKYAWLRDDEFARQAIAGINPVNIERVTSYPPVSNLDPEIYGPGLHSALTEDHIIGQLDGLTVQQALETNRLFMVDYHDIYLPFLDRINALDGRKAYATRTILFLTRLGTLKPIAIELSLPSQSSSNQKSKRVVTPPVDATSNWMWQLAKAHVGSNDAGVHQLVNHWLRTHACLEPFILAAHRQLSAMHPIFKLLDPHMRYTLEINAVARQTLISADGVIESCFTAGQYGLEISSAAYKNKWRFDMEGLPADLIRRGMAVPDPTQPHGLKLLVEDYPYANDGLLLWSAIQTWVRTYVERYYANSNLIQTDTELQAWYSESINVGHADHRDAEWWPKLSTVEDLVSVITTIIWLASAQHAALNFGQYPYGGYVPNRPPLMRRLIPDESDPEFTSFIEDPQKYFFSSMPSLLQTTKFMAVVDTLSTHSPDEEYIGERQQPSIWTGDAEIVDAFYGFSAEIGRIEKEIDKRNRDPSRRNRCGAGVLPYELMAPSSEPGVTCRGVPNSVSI

LOX3 [2] = target: T2, LOX3 (Arabidopsis thaliana, UniProt Q9LNR3); assay: LOX3 activity, oxygen electrode (polarography); type: biochemical; design: made in house; host or cells: E. coli Nico21(DE3), pET15b; conditions: enzyme incubated with 280 µM chemical (1/10 vol of 2.8 mM), injected into 30 µM LeA, 50 mM Tris-HCl pH 7.2; vs solvent control; read-out: Polarography Relative Activity (%) LOX3
T2 sequence (Q9LNR3 71-919): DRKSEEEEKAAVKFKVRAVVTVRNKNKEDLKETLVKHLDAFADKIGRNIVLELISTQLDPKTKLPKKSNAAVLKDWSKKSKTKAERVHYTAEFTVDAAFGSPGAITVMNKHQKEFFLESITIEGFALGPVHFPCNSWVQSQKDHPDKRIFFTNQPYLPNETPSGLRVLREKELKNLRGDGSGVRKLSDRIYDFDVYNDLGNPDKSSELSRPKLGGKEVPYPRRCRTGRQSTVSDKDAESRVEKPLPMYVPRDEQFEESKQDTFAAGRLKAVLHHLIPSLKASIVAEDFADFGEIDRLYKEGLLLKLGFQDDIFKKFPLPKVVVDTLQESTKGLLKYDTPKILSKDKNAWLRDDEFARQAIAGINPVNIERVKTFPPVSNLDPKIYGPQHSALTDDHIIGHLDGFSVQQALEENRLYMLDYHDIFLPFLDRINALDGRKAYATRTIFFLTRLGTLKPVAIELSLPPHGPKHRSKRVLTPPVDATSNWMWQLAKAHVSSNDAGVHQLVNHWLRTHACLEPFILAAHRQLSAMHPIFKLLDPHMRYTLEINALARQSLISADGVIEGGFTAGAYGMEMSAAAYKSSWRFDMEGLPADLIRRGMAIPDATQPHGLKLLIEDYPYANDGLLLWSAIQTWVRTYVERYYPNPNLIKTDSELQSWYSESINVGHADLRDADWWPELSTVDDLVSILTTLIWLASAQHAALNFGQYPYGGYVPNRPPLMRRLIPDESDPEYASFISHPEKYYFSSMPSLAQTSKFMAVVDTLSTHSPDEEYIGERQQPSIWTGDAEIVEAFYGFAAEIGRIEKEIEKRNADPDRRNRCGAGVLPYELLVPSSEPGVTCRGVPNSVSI

LOX4 [3] = target: T1, LOX4; assay: LOX4 activity, oxygen electrode (polarography); type: biochemical; design: made in house; host or cells: E. coli Nico21(DE3), pET15b; conditions: enzyme incubated with 280 µM chemical (1/10 vol of 2.8 mM), injected into 30 µM LeA, 50 mM Tris-HCl pH 7.2; vs solvent control; read-out: Polarography Relative Activity (%) LOX4
LOX3 [4] = target: T2, LOX3; assay: LOX3 activity, spectrophotometric (conjugated diene formation at 234 nm); conditions: for Mode of inhibition: Michaelis–Menten, Lineweaver–Burk and Dixon plots; for Photometry Relative activity (%) LOX3: enzyme 0.225 µg/µL incubated 10 min 30 °C with 280 µM chemical, 4.8 µM LeA, 50 mM Tris-HCl pH 7.2, vs solvent control; for Relative Activity (%) LOX3: E. coli lysate in 50 mM TRIS pH 8.0 diluted 1:10, 50 mM HEPES pH 8.0 + 1 mM metal salt, LeA, 234 nm
LOX4 [5] = target: T1, LOX4; assay: LOX4 activity, spectrophotometric (conjugated diene formation at 234 nm); conditions: for Photometry Relative activity (%) LOX4: enzyme 0.225 µg/µL incubated 10 min 30 °C with 280 µM chemical, 4.8 µM LeA, 50 mM Tris-HCl pH 7.2, vs solvent control; for Relative Activity (%) LOX4: E. coli lysate in 50 mM TRIS pH 8.0 diluted 1:10, 50 mM HEPES pH 8.0 + 1 mM metal salt, LeA, 234 nm
LOX3 [6] = target: T2, LOX3; assay: LOX3 activity, oxygen electrode (polarography); type: biochemical; design: made in house; host or cells: E. coli Nico21(DE3), pET15b; conditions: for Relative Activity (%) LOX3: 1 mM metal salt, LeA 30 µM in 20 mM HEPES pH 8.0, oxygen consumption vs control without metal
[7] = 12.2 µg LOX4 + 1.3 mM GSH prior to 140 µM 12-OPDA
[8] = doubled LOX4 concentration + 1.3 mM GSH + 140 µM 12-OPDA

In the case of `CCC=CCC1C(=O)C=CC1CCCCCCCC(=O)O` (stereo not drawn) [12-OPDA, cis-(+)-12-oxophytodienoic acid], the “Sensitivity of AOS” value (AOS; 0.5 mM) is listed as “insensitivity”, the “Sensitivity of AOC” value (AOC; 0.5 mM) is listed as “insensitivity” and the “Residual LOX4 activity” value (LOX4 [1]; 12.2 µg LOX4 + 140 µM 12-OPDA alone) is listed as 29.6%. For the same molecule, the “Oxygen consumption (residual LOX4 activity)” value (LOX4 [1]; 12.2 µg LOX4 + 140 µM 12-OPDA alone, control 9.8 ± 0.1) was 2.9 ± 0.1 nmol/mL/min, the “Oxygen consumption (residual LOX4 activity)” value (LOX4 [1]; [7]) was 3.6 ± 0.1 nmol/mL/min and the “Residual LOX4 activity” value (LOX4 [1]; [7]) was 36.7%. The “Residual LOX4 activity” value (LOX4 [1]; doubled LOX4 concentration + 140 µM 12-OPDA) was 34%, the “Oxygen consumption (residual LOX4 activity)” value (LOX4 [1]; doubled LOX4 concentration + 140 µM 12-OPDA, control 19.7 ± 0.1) was 6.7 ± 0.1 nmol/mL/min and the “Oxygen consumption (residual LOX4 activity)” value (LOX4 [1]; [8]) was 9.0 ± 0.1 nmol/mL/min. The “Residual LOX4 activity” value (LOX4 [1]; [8]) was 45.7%, the “Oxygen consumption (residual LOX4 activity)” value (LOX4 [1]; doubled LOX4 concentration + 2.6 mM GSH + 140 µM 12-OPDA) was 8.5 ± 0.6 nmol/mL/min and the activity at 280 µM (LOX3 [2]) was 60 ± 5%. For the same molecule, the activity at 280 µM (LOX4 [3]) was 21 ± 5%, the IC50 (LOX3 [4]) was 130 ± 31 µM and the Ki (LOX3 [4]) was 13 µM. For the same molecule, the Mode of inhibition (LOX3 [4]) was “non-competitive or mixed”, the “Photometry Relative activity (%) LOX3” value (LOX3 [4]) was 35 ± 5% and the IC50 (LOX4 [5]) was 48 µM. For the same molecule, the Ki (LOX4 [5]) was 10 µM, the Mode of inhibition (LOX4 [5]; Lineweaver–Burk and Dixon plots) was “non-competitive or mixed” and the “Photometry Relative activity (%) LOX4” value (LOX4 [5]) was 6 ± 4%.

For `[Ca+2].[Cl-].[Cl-]` [CaCl2], the “Sensitivity of AOS” value (AOS; 1.0 mM) is listed as “insensitivity”, the “Sensitivity of AOC” value (AOC; 1.0 mM) is listed as “insensitivity” and the “Relative Activity (%) LOX3” value (LOX3 [6]) is listed as 117 ± 10%. The “Relative Activity (%) LOX4” value (LOX4 [1]) was 100 ± 4%, the “Relative Activity (%) LOX3” value (LOX3 [4]) was 104±2% and the “Relative Activity (%) LOX4” value (LOX4 [5]) was 85±6%.

For `O=S(=O)([O-])[O-].[Cd+2]` [CdSO4], the “Relative Activity (%) LOX3” value (LOX3 [6]) was “no activity”, the “Relative Activity (%) LOX4” value (LOX4 [1]) was “no activity” and the “Relative Activity (%) LOX3” value (LOX3 [4]) was 63±3%. The “Relative Activity (%) LOX4” value (LOX4 [5]) was 40±6%.

In the case of `CC/C=C\CC1C(=O)CCC1CC(=O)OC` (stereo not shown) [MJ, methyl jasmonate], the activity at 280 µM (LOX3 [2]) is reported as 85 ± 5%, the activity at 280 µM (LOX4 [3]) is reported as 95 ± 3% and the Ki (LOX3 [4]) is reported as 295 µM. The Mode of inhibition (LOX3 [4]) was “non-competitive”.

In the case of `[Cl-].[Cl-].[Mg+2]` [MgCl2], the “Sensitivity of AOS” value (AOS; 1.0 mM) is listed as “insensitivity”, the “Sensitivity of AOC” value (AOC; 1.0 mM) is listed as “insensitivity” and the “Increase of LOX3 activity in comparison to control” value (LOX3 [6]; 1 mM cation, LeA 30 µM, pH 8.0) is listed as 35%. The “Relative Activity (%) LOX3” value (LOX3 [6]) was 135 ± 4%, the “Increase of LOX4 activity in comparison to control” value (LOX4 [1]; 1 mM cation, LeA 30 µM, pH 8.0) was 6% and the “Relative Activity (%) LOX4” value (LOX4 [1]) was 106 ± 3%. The “Relative Activity (%) LOX3” value (LOX3 [4]) was 108±4% and the “Relative Activity (%) LOX4” value (LOX4 [5]) was 107±2%.

Molecule `O=C(O)c1ccccc1O` [SA, salicylic acid] has an activity at 280 µM (LOX3 [2]) of 101 ± 5% and an activity at 280 µM (LOX4 [3]) of 101 ± 4%.

For `O=C(O)/C=C/CCCCCCCCC(=O)O` [TA, traumatic acid], the activity at 280 µM (LOX3 [2]) was 100 ± 5%, the activity at 280 µM (LOX4 [3]) was 100 ± 9% and the “Photometry Relative activity (%) LOX3” value (LOX3 [4]) was 103 ± 4%. The “Photometry Relative activity (%) LOX4” value (LOX4 [5]) was 106 ± 4%.
